In patent US20110312945A1, “CRTH2 MODULATORS” (priority 2008, published 2011):

Biological target: T1, CRTH2 (Homo sapiens, UniProt Q9Y5Y4)
T1 construct: polymorphonuclear cells (0.5 ml; 10^6/ml cells) in PBS containing 0.9 mM CaCl2 and 0.5 mM MgCl2; endogenous in cells; host or cells: polymorphonuclear cells (eosinophils gated by flow cytometry)
T1 sequence (Q9Y5Y4 1-395): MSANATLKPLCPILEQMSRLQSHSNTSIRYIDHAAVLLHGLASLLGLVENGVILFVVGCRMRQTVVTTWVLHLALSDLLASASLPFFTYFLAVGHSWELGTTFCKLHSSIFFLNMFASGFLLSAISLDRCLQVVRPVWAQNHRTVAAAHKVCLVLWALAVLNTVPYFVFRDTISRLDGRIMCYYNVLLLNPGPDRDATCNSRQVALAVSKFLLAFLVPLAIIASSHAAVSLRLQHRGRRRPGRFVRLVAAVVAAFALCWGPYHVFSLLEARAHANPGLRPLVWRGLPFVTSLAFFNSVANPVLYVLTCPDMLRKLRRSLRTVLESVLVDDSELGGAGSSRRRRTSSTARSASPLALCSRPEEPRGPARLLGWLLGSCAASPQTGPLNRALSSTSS
Test: DPBS CD11b Antagonist Assay
Assay type: cell-based
Conditions: polymorphonuclear cells in PBS, eosinophil CD11b expression, challenge with 15R-Methyl-PGD2 (10 nM)
Procedure: DPBS CD11b Antagonist Assay. The potential CRTH2 antagonist activity of certain compounds was tested using a CD11b expression assay using essentially the method described by Monneret et al. (J Pharmacol Exp Ther 304:349-55, 2003). Briefly, polymorphonuclear cells (0.5 ml; 10^6/ml cells) in PBS containing 0.9 mM CaCl2 and 0.5 mM MgCl2) were preincubated with various concentrations of test compounds at room temperature for 10 minutes before they were challenged with the agonist 15R-Methyl-PGD2 (10 nM). The incubations were terminated by the addition of ice-cold FACSFlow (BD Biosciences; Cat# 342003) and centrifugation (400 g for 5 minutes at 4° C.). The cells were then incubated for 30 minutes at 4° C. with a mixture of PE-labeled mouse anti-human VLA-4 (5 μl; BD Biosciences) and FITC-labeled mouse anti-human CD11b (10 μl; Beckman Coulter). The cells were then incubated with Optilyse C (0.25 ml; Beckman Coulter) for 15 minutes, centrifuged, and then fixed in PBS (0.4 ml; calcium and magnesium free) containing 1% formaldehyde. The distribution of fluorescence intensities among 60,000 cells was measured by flow cytometry. Eosinophils were gated out on the basis of their granularity (high side scatter) and labeling with VLA-4 (PE fluorescence). CD11b was then measured in the eosinophil region on the basis of fluorescence due to FITC. All data were corrected for the value obtained for the corresponding isotope control antibody.

Row | IC50 | Compound
1 | < 5 nM | Cc1c(Cc2ccc(S(=O)(=O)NC3CC3)cc2)c2c(n1CC(=O)O)CCC(C)(C)C2 [Example I-15, 2-(3-(4-(N-Cyclopropylsulfamoyl)benzyl)-2,5,5-trimethyl-4,5,6,7-tetrahydro-1H-indol-1-yl)acetic acid]
2 | 5 to 100 nM | Cc1c(Cc2ccc(S(=O)(=O)N3CCCCCC3)cc2)c2c(n1CC(=O)O)CCC(C)(C)C2 [Example I-16, 2-(3-(4-(Azepan-1-ylsulfonyl)benzyl)-2,5,5-trimethyl-4,5,6,7-tetrahydro-1H-indol-1-yl)acetic acid]
3 | < 5 nM | Cc1c(Cc2ccc(S(=O)(=O)N(C)C)cc2)c2c(n1CC(=O)O)CCC(C)(C)C2 [Example I-18, 2-(3-(4-(N,N-Dimethylsulfamoyl)benzyl)-2,5,5-trimethyl-4,5,6,7-tetrahydro-1H-indol-1-yl)acetic acid]
4 | 100 to 500 nM | CCOC(=O)Cn1c(C)c(Cc2ccccc2S(=O)(=O)N2CCOCC2)c2c1CCC(C)(C)C2 [Example I-25, Ethyl 2-(2,5,5-trimethyl-3-(2-(morpholinosulfonyl)benzyl)-4,5,6,7-tetrahydro-1H-indol-1-yl)acetate]
5 | < 5 nM | Cc1c(Cc2ccccc2S(=O)(=O)N2CCOCC2)c2c(n1CC(=O)O)CC(C)(C)CC2 [Example I-26, 2-(2,6,6-trimethyl-3-(2-(morpholinosulfonyl)benzyl)-4,5,6,7-tetrahydro-1H-indol-1-yl)acetic acid]
6 | 5 to 100 nM | Cc1c(Cc2cccc(S(=O)(=O)N3CCOCC3)c2)c2c(n1CC(=O)O)CCC(C)(C)C2 [Example I-27, 2-(2,5,5-trimethyl-3-(3-(morpholinosulfonyl)benzyl)-4,5,6,7-tetrahydro-1H-indol-1-yl)acetic acid]
7 | < 5 nM | Cc1c(Cc2ccccc2S(=O)(=O)N2CCOCC2)c2c(n1[C@H](C)C(=O)O)CCC(C)(C)C2 [Example I-35, (R)-2-(2,5,5-trimethyl-3-(2-(morpholinosulfonyl)benzyl)-4,5,6,7-tetrahydro-1H-indol-1-yl)propanoic acid]
8 | < 5 nM | Cc1c(Sc2ccc(S(=O)(=O)N3CCOCC3)cc2)c2c(n1CC(=O)O)CCC(C)(C)C2 [Example I-37, 2-(2,5,5-trimethyl-3-(4-(morpholinosulfonyl)phenylthio)-4,5,6,7-tetrahydro-1H-indol-1-yl)acetic acid]
9 | > 500 nM | Cc1c(C(O)c2ccccc2S(=O)(=O)N2CCCC2)c2c(n1CC(=O)O)CC(C)(C)CC2=O (stereo not shown) [Example I-50, 2-(3-(hydroxy(2-(pyrrolidin-1-ylsulfonyl)phenyl)methyl)-2,6,6-trimethyl-4-oxo-4,5,6,7-tetrahydro-1H-indol-1-yl)acetic acid]
10 | < 5 nM | Cc1c(Cc2ccccc2S(=O)(=O)N(C)C)c2c(n1CC(=O)O)CC(C)(C)CC2=O [Example I-52, 2-(3-(2-(N,N-dimethylsulfamoyl)benzyl)-2,6,6-trimethyl-4-oxo-4,5,6,7-tetrahydro-1H-indol-1-yl)acetic acid]
11 | > 500 nM | CCOC(=O)Cn1c(C)c(Sc2ccc(Br)cc2S(=O)(=O)N2CCCC2)c2c1CC(C)(C)CC2=O [Example I-53, ethyl 2-(3-(4-bromo-2-(pyrrolidin-1-ylsulfonyl)phenylthio)-2,6,6-trimethyl-4-oxo-4,5,6,7-tetrahydro-1H-indol-1-yl)acetate]
12 | 100 to 500 nM | CCOC(=O)Cn1c(C)c(Sc2ccc(C)cc2S(=O)(=O)N2CCCC2)c2c1CC(C)(C)CC2=O [Example I-54, ethyl 2-(2,6,6-trimethyl-3-(4-methyl-2-(pyrrolidin-1-ylsulfonyl)phenylthio)-4-oxo-4,5,6,7-tetrahydro-1H-indol-1-yl)acetate]
13 | 100 to 500 nM | CCOC(=O)Cn1c(C)c(Cc2ccccc2S(=O)(=O)N2CCOCC2)c2c1CC(C)(C)CC2=O [Example I-56, ethyl 2-(2,6,6-trimethyl-3-(2-(morpholinosulfonyl)benzyl)-4-oxo-4,5,6,7-tetrahydro-1H-indol-1-yl)acetate]
